{"source": "patent US20260070917A1", "about": "“CYCLIN DEPENDENT KINASE DEGRADERS AND METHODS OF USE THEREOF” (Differentiated Therapeutics Inc, priority 2023, published 2026)", "key": {"CCNE1": {"target": "T1, CCNE1 (Homo sapiens, UniProt P24864)", "T1 construct": "host or cells: HEK293-CCNE1-Hibit", "T1 sequence (P24864 whole entry)": "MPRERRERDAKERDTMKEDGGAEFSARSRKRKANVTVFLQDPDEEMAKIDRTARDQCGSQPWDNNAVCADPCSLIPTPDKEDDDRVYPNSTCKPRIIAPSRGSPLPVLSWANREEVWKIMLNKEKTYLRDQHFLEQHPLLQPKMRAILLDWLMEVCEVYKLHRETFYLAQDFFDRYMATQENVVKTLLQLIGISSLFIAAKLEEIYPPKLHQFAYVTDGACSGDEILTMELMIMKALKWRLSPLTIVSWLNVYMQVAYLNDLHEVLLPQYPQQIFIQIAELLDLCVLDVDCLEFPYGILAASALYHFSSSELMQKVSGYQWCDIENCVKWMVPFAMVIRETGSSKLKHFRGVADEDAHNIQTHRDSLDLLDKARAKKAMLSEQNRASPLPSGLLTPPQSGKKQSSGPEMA", "test": "HiBit Assay Protocol for CCNE1 (HIBIT protein quantification, degradation)", "type": "cell-based", "details": "HEK293-CCNE1-Hibit cells, compound treatment for 6 hours", "method": "HiBit Assay Protocol for CCNE1\n(§1) • 1. The culture medium for HEK293-CCNE1-Hibit cell was prepared using EMEM with 1000 FBS. • 2. Cells were cultivated in T-75 flasks in a cell culture incubator set at 37° C., 5% CO2, 95% relative humidity. Cells were allowed to reach 80-90% confluence before detaching and splitting. • 3. Cultivated cells were rinsed in T-75 flasks with 5 mL PBS. Aspirate off Added was 1.5 mL trypsin, and the cells were incubated at 37° C. for approximately 5 minutes or until the cells detached and floated. • 4. Trypsin was inactivated by adding excess serum containing medium. • 5. Cells were harvested from flask into cell culture medium and then the cell number was counted. HEK293-CCNE1-Hibit cell were seeded into 384-well plate (cell density: 1.6×10^5 cells/well/50 uL medium) in EMEM medium according to the plate map below and incubated overnight at 37° C. and 500 CO2. • Note: Cell Cultured Medium: 90% EMEM+10% FBS+1% Penicillin-Streptomycin Liquid\n(§2) • 1. Test compounds were dissolved at 10 mM DMSO stock solution. 45 μL of stock solution was transferred to a 384 pp-plate. A 3-fold, 10-point dilution was performed via transferring 15 uL compound into 30 uL DMSO by using TECAN liquid handler. • 2. The plates were spinned at room temperature at 1,000 RPM for 1 minute. • 3. 50 nL of diluted compound was transferred from compound source plate into the cell plate by Echo. • 4. After compound treatment for 6 hours, the plate was removed from incubators and equilibrated at room temperature for 15 minutes. The HiBit reagent was prepared, consisting of the following ratios: 10 mL of Nano-Glo®-HiBiT Lytic Buffer, 200 μL of Nano-Glo®-HiBiT Lytic Substrate and 100 μL of LgBiT Protein, mix thoroughly. 20 μL of HiBit reagent was added into each well and the plates were spinned at room temperature at 1,000 RPM for 1 minute to be detected. Then the plates were shaken at 600 RPM at room temperature for 20 minutes, and read by EnVision. • 5. The inhibition activity was calculated following the formula below:\n(§3) [formula] • Note: Where HC is obtained from cells treated with […] only; LC is obtained from culture medium only. • 6. ABS DC50 was calculated by fitting the Curve using Xlfit (v5.3.1.3), equation 201: […]"}, "CDK2": {"target": "T2, CDK2 (Homo sapiens, UniProt P24941)", "T2 construct": "host or cells: HEK293-CDK2-Hibit", "test": "HiBit Assay Protocol for CDK2 (HIBIT protein quantification, degradation)", "type": "cell-based", "details": "HEK293-CDK2-Hibit cells, compound treatment for 6 hours; for DC50: ABS DC50", "method": "HiBit Assay Protocol for CDK2\nas §1, with “HEK293-CDK2-Hibit cells” for “HEK293-CCNE1-Hibit cell”, “DMEM” for “EMEM”, “10%” for “1000”, “5%” for “500”, “DMEM+10%” for “EMEM+10%”\nas §2, with “mM DMS” for “mM DMSO”, “45 uL” for “45 μL”, “100 uL” for “100 μL”, “Protein, mixed” for “Protein, mix”\nas §3"}}, "data": [{"smiles": "CC1CCCC1N1C(=O)C2(CC2)c2cnc(NC3CCN(S(=O)(=O)C4CCN(C(=O)CCCCCc5cccc6c5n(C)c(=O)n6C5CCC(=O)NC5=O)C4)CC3)nc21", "note": "(centres unmarked) [Compound 1, 3-{3-Methyl-4-[6-(3-{4-[7′-(2-methylcyclopentyl)-6′-oxospiro[cyclopropane-1,5′-pyrrolo[2,3-d]pyrimidin]-2′-ylamino]piperidin-1-ylsulfonyl}pyrrolidin-1-yl)-6-oxohexyl]-2-oxo-1,3-benzodiazol-1-yl}piperidine-2,6-dione]", "values": [{"measurement": "CCNE1 HIBIT Protein Quantification Maximum", "setting": "CCNE1", "value": 30.9, "unit": "%"}, {"measurement": "CDK2 HIBIT Protein Quantification Maximum", "setting": "CDK2", "value": 70.2, "unit": "%"}, {"measurement": "DC50", "setting": "CDK2", "value": 16, "unit": "nM"}]}, {"smiles": "CC1CCCC1N1C(=O)C2(CC2)c2cnc(NC3CCN(S(=O)(=O)N4CCC5(CCCN5C(=O)CCCCCCCc5cccc6c5n(C)c(=O)n6C5CCC(=O)NC5=O)C4)CC3)nc21", "note": "(centres unmarked) [Compound 2, 3-{3-Methyl-4-[8-(7-{4-[7′-(2-methylcyclopentyl)-6′-oxospiro[cyclopropane-1,5′-pyrrolo[2,3-d]pyrimidin]-2′-ylamino]piperidin-1-ylsulfonyl}-1,7-diazaspiro[4.4]nonan-1-yl)-8-oxooctyl]-2-oxo-1,3-benzodiazol-1-yl}piperidine-2,6-dione]", "values": [{"measurement": "CCNE1 HIBIT Protein Quantification Maximum", "setting": "CCNE1", "value": 41.1, "unit": "%"}, {"measurement": "CDK2 HIBIT Protein Quantification Maximum", "setting": "CDK2", "value": 45.7, "unit": "%"}]}, {"smiles": "CC1CCCC1N1C(=O)C2(CC2)c2cnc(NC3CCN(S(=O)(=O)N4CC5(CCCN(C(=O)CCCCCCCc6cccc7c6n(C)c(=O)n7C6CCC(=O)NC6=O)C5)C4)CC3)nc21", "note": "(centres unmarked) [Compound 3]", "values": [{"measurement": "CCNE1 HIBIT Protein Quantification Maximum", "setting": "CCNE1", "value": 19.4, "unit": "%"}, {"measurement": "CDK2 HIBIT Protein Quantification Maximum", "setting": "CDK2", "value": 34.6, "unit": "%"}]}, {"smiles": "CC1CCCC1N1C(=O)C2(CC2)c2cnc(NC3CCN(S(=O)(=O)N4CC5(CCN(C(=O)CCCCCCCc6cccc7c6n(C)c(=O)n7C6CCC(=O)NC6=O)CC5)C4)CC3)nc21", "note": "(centres unmarked) [Compound 4]", "values": [{"measurement": "CCNE1 HIBIT Protein Quantification Maximum", "setting": "CCNE1", "value": 21.2, "unit": "%"}, {"measurement": "CDK2 HIBIT Protein Quantification Maximum", "setting": "CDK2", "value": 56.5, "unit": "%"}, {"measurement": "DC50", "setting": "CDK2", "value": 6.7, "unit": "nM"}]}, {"smiles": "CC1CCCC1N1C(=O)C2(CC2)c2cnc(NC3CCN(S(=O)(=O)N4CC5CN(C(=O)CCCCCCCc6cccc7c6n(C)c(=O)n7C6CCC(=O)NC6=O)CC54)CC3)nc21", "note": "(centres unmarked) [Compound 5]", "values": [{"measurement": "CCNE1 HIBIT Protein Quantification Maximum", "setting": "CCNE1", "value": 21.9, "unit": "%"}, {"measurement": "CDK2 HIBIT Protein Quantification Maximum", "setting": "CDK2", "value": 24.9, "unit": "%"}]}, {"smiles": "CC1CCCC1N1C(=O)C2(CC2)c2cnc(NC3CCN(S(=O)(=O)C4CCN(C(=O)CCCCCCCc5cccc6c5n(C)c(=O)n6C5CCC(=O)NC5=O)C4)CC3)nc21", "note": "(centres unmarked) [Compound 6]", "values": [{"measurement": "CCNE1 HIBIT Protein Quantification Maximum", "setting": "CCNE1", "value": 30, "unit": "%"}, {"measurement": "CDK2 HIBIT Protein Quantification Maximum", "setting": "CDK2", "value": 66.2, "unit": "%"}, {"measurement": "DC50", "setting": "CDK2", "value": 14.6, "unit": "nM"}]}, {"smiles": "CC1CCCC1N1C(=O)C2(CC2)c2cnc(NC3CCN(S(=O)(=O)N4CCN(C(=O)CCCc5ccc6c(c5)n(C)c(=O)n6C5CCC(=O)NC5=O)CC4)CC3)nc21", "note": "(centres unmarked) [Compound 7]", "values": [{"measurement": "CCNE1 HIBIT Protein Quantification Maximum", "setting": "CCNE1", "value": 21.2, "unit": "%"}, {"measurement": "CDK2 HIBIT Protein Quantification Maximum", "setting": "CDK2", "value": 37.9, "unit": "%"}]}, {"smiles": "CC1CCCC1N1C(=O)C2(CC2)c2cnc(NC3CCN(S(=O)(=O)N4CCN(C(=O)CCCCc5cccc6c5n(C)c(=O)n6C5CCC(=O)NC5=O)CC4)CC3)nc21", "note": "(centres unmarked) [Compound 8]", "values": [{"measurement": "CCNE1 HIBIT Protein Quantification Maximum", "setting": "CCNE1", "value": 24.7, "unit": "%"}, {"measurement": "CDK2 HIBIT Protein Quantification Maximum", "setting": "CDK2", "value": 59.2, "unit": "%"}, {"measurement": "DC50", "setting": "CDK2", "value": 8.8, "unit": "nM"}]}, {"smiles": "CC1CCCC1N1C(=O)C2(CC2)c2cnc(NC3CCN(S(=O)(=O)N4CC5(CCN(C(=O)CCCCc6cccc7c6n(C)c(=O)n7C6CCC(=O)NC6=O)CC5)C4)CC3)nc21", "note": "(centres unmarked) [Compound 9]", "values": [{"measurement": "CDK2 HIBIT Protein Quantification Maximum", "setting": "CDK2", "value": 48.4, "unit": "%"}]}, {"smiles": "CC1CCCC1N1C(=O)C2(CC2)c2cnc(NC3CCN(S(=O)(=O)N4CCC5(CCN(C(=O)CCCCc6cccc7c6n(C)c(=O)n7C6CCC(=O)NC6=O)C5)C4)CC3)nc21", "note": "(centres unmarked) [Compound 10]", "values": [{"measurement": "CDK2 HIBIT Protein Quantification Maximum", "setting": "CDK2", "value": 38.9, "unit": "%"}]}, {"smiles": "CC1CCCC1N1C(=O)C2(CC2)c2cnc(NC3CCN(S(=O)(=O)C4CCN(C(=O)CCCCc5cccc6c5n(C)c(=O)n6C5CCC(=O)NC5=O)C4)CC3)nc21", "note": "(centres unmarked) [Compound 11]", "values": [{"measurement": "CCNE1 HIBIT Protein Quantification Maximum", "setting": "CCNE1", "value": 23.6, "unit": "%"}, {"measurement": "CDK2 HIBIT Protein Quantification Maximum", "setting": "CDK2", "value": 49.5, "unit": "%"}]}, {"smiles": "CC1CCCC1N1C(=O)C2(CC2)c2cnc(NC3CCN(S(=O)(=O)N4CCN(C(=O)CCCCc5ccc6c(c5)n(C)c(=O)n6C5CCC(=O)NC5=O)CC4)CC3)nc21", "note": "(centres unmarked) [Compound 12]", "values": [{"measurement": "CCNE1 HIBIT Protein Quantification Maximum", "setting": "CCNE1", "value": 16.9, "unit": "%"}, {"measurement": "CDK2 HIBIT Protein Quantification Maximum", "setting": "CDK2", "value": 34.6, "unit": "%"}]}]}
